Data as given in ChEMBL document CHEMBL2069221, “Hybrid molecules of carvacrol and benzoyl urea/thiourea with potential applications in agriculture and medicine” (Bioorg Med Chem Lett, 2012).
Converted amounts (≈) assume the structure as drawn. The source made the active and inactive calls. The calls are words filed in the database; no cut-off is given here.

Legend:
Dysdercus koenigii [1] = assay: Insecticidal activity against 5th instar nymph of Dysdercus koenigii assessed as mortality per nymph; assay type: functional
Pyricularia grisea = assay: Antifungal activity against Magnaporthe grisea after 48 hrs by microbroth dilution method; assay type: functional
Fusarium oxysporum = assay: Antifungal activity against Fusarium oxysporum after 48 hrs by microbroth dilution method; assay type: functional
Drechslera = assay: Antifungal activity against Dreschlera oryzae after 48 hrs by microbroth dilution method; assay type: functional
Debaryomyces hansenii = assay: Antifungal activity against Debaryomyces hansenii after 48 hrs by microbroth dilution method; assay type: functional
[2] = Antifungal activity against Pichia membranifaciens after 48 hrs by microbroth dilution method; assay type: functional
Candida albicans [3] = assay: Antifungal activity against Candida albicans NCIM 3557 after 48 hrs by microbroth dilution method; assay type: functional
Candida albicans [4] = assay: Antifungal activity against Candida albicans after 48 hrs by microbroth dilution method; assay type: functional
Candida albicans [5] = assay: Antifungal activity against Candida albicans NCIM 3471 after 48 hrs by microbroth dilution method; assay type: functional
Nakaseomyces glabratus = assay: Antifungal activity against Candida glabrata NCIM 3237 after 48 hrs by microbroth dilution method; assay type: functional
Cryptococcus neoformans [6] = assay: Antifungal activity against Cryptococcus neoformans after 48 hrs by microbroth dilution method; assay type: functional
Cryptococcus neoformans [7] = assay: Antifungal activity against Cryptococcus neoformans NCIM 3541 after 48 hrs by microbroth dilution method; assay type: functional
Cryptococcus neoformans [8] = assay: Antifungal activity against Cryptococcus neoformans NCIM 3542 after 48 hrs by microbroth dilution method; assay type: functional
Cryptococcus neoformans [9] = assay: Antifungal activity against Cryptococcus neoformans NCIM 3378 after 48 hrs by microbroth dilution method; assay type: functional
[10] = Toxicity in RBC assessed as induction of hemolysis; assay type: cell-based, Erythrocyte; settings: red blood cells (RBC)
[11] = Toxicity in RBC assessed as induction of hemolysis at MIC; assay type: cell-based, Erythrocyte; settings: red blood cells (RBC); read-out: Activity
[12] = Toxicity in RBC assessed as induction of hemolysis at 1000 ug/ml; assay type: cell-based, Erythrocyte; settings: red blood cells (RBC); read-out: Activity
Dysdercus koenigii [13] = assay: Insecticidal activity against 5th instar nymph of Dysdercus koenigii assessed as smaller body size at 20 and 50 ug/nymph; assay type: functional
Dysdercus koenigii [14] = assay: Insecticidal activity against 5th instar nymph of Dysdercus koenigii assessed as crumpled wings at 20 and 50 ug/nymph; assay type: functional
Dysdercus koenigii [15] = assay: Insecticidal activity against 5th instar nymph of Dysdercus koenigii assessed as deformed legs at 20 and 50 ug/nymph; assay type: functional

Structure (SMILES) | LD50 (Dysdercus koenigii [1]) | MIC (Pyricularia grisea) | MIC (Fusarium oxysporum) | MIC (Drechslera) | MIC (Debaryomyces hansenii) | MIC [2] | GI (Candida albicans [3]) | GI (Candida albicans [4]) | GI (Candida albicans [5]) | GI (Nakaseomyces glabratus) | GI (Cryptococcus neoformans [6]) | GI (Cryptococcus neoformans [7]) | GI (Cryptococcus neoformans [8]) | GI (Cryptococcus neoformans [9]) | HC50 [10] | hemolysis [11] | hemolysis at 1000 ug/ml [12] | Activity (Dysdercus koenigii [13]) | Activity (Dysdercus koenigii [14]) | Activity (Dysdercus koenigii [15])
Cc1cc(NC(=O)NC(=O)c2ccc(F)cc2)c(C(C)C)cc1O | 14.9 µg | > 512 µg/mL | > 512 µg/mL | > 512 µg/mL | > 512 µg/mL | > 512 µg/mL | >512 µg/mL | 16 µg/mL | 32 µg/mL | 16 µg/mL | >512 µg/mL | <4 µg/mL | 16 µg/mL | 16 µg/mL | > 1000 µg/mL | < 2% | – | – | – | –
Cc1cc(NC(=S)NC(=O)c2ccccc2)c(C(C)C)cc1O | 23.6 µg | > 512 µg/mL | > 512 µg/mL | > 512 µg/mL | > 512 µg/mL | 512 µg/mL (≈ 1560 µM) | 128 µg/mL | 32 µg/mL | >512 µg/mL | 32 µg/mL | 64 µg/mL | 16 µg/mL | 32 µg/mL | 128 µg/mL | > 1000 µg/mL | < 2% | – | – | – | –
O=C(NC(=O)c1c(F)cccc1F)Nc1cc(Cl)c(OC(F)(F)C(F)C(F)(F)F)cc1Cl (stereo unspecified) [LUFENURON] | 9 µg | > 512 µg/mL | > 512 µg/mL | > 512 µg/mL | > 512 µg/mL | > 512 µg/mL | >512 µg/mL | >512 µg/mL | >512 µg/mL | >512 µg/mL | >512 µg/mL | >512 µg/mL | >512 µg/mL | >512 µg/mL | > 1000 µg/mL | – | – | – | – | –
Cc1cc(NC(=O)NC(=O)c2ccccc2)c(C(C)C)cc1O | 21.5 µg | > 512 µg/mL | > 512 µg/mL | > 512 µg/mL | > 512 µg/mL | > 512 µg/mL | 512 µg/mL | >512 µg/mL | >512 µg/mL | >512 µg/mL | >512 µg/mL | >512 µg/mL | 256 µg/mL | >512 µg/mL | > 1000 µg/mL | < 2% | – | – | – | –
Cc1cc(NC(=S)NC(=O)c2ccccc2F)c(C(C)C)cc1O | 12.6 µg | 256 µg/mL (≈ 739 µM) | 128 µg/mL (≈ 369 µM) | > 512 µg/mL | 256 µg/mL (≈ 739 µM) | > 512 µg/mL | 128 µg/mL | 128 µg/mL | >512 µg/mL | 128 µg/mL | 32 µg/mL | 64 µg/mL | 128 µg/mL | 512 µg/mL | > 1000 µg/mL | < 2% | – | – | – | –
Cc1cc(NC(=S)NC(=O)c2ccc(F)cc2)c(C(C)C)cc1O | 12.6 µg | 256 µg/mL (≈ 739 µM) | 128 µg/mL (≈ 369 µM) | 256 µg/mL (≈ 739 µM) | 256 µg/mL (≈ 739 µM) | 512 µg/mL (≈ 1480 µM) | 64 µg/mL | 64 µg/mL | >512 µg/mL | 64 µg/mL | 16 µg/mL | 32 µg/mL | 64 µg/mL | 128 µg/mL | > 1000 µg/mL | – | 17% | – | – | –
C[C@@H]1[C@H](O)[C@@H](C)/C=C/C=C/C=C/C=C/C=C/C=C/C=C/[C@H](O[C@@H]2O[C@H](C)[C@@H](O)[C@H](N)[C@@H]2O)C[C@@H]2O[C@](O)(C[C@@H](O)C[C@@H](O)[C@H](O)CC[C@@H](O)C[C@@H](O)CC(=O)O[C@H]1C)C[C@H](O)[C@H]2C(=O)O [AMPHOTERICIN B] | – | – | – | – | – | – | – | – | – | – | – | – | – | – | 8 µg/mL | – | – | – | – | –
Cc1cc(NC(=S)NC(=O)c2c(F)cccc2F)c(C(C)C)cc1O | 11.3 µg | > 512 µg/mL | > 512 µg/mL | 256 µg/mL (≈ 702 µM) | 128 µg/mL (≈ 351 µM) | > 512 µg/mL | 256 µg/mL | 64 µg/mL | >512 µg/mL | 64 µg/mL | 512 µg/mL | 32 µg/mL | 64 µg/mL | 128 µg/mL | > 1000 µg/mL | < 2% | – | – | – | –
Cc1ccc(C(C)C)cc1O [CARVACROL] | 33.3 µg | 128 µg/mL (≈ 852 µM) | 64 µg/mL (≈ 426 µM) | 64 µg/mL (≈ 426 µM) | 128 µg/mL (≈ 852 µM) | 128 µg/mL (≈ 852 µM) | 128 µg/mL | 128 µg/mL | 256 µg/mL | 128 µg/mL | 128 µg/mL | 128 µg/mL | 128 µg/mL | 128 µg/mL | 250 µg/mL | – | – | – | – | –
Cc1cc(NC(=O)NC(=O)c2ccccc2F)c(C(C)C)cc1O | 12.5 µg | > 512 µg/mL | > 512 µg/mL | > 512 µg/mL | > 512 µg/mL | > 512 µg/mL | >512 µg/mL | 16 µg/mL | 32 µg/mL | 16 µg/mL | >512 µg/mL | <4 µg/mL | 16 µg/mL | 16 µg/mL | > 1000 µg/mL | < 2% | – | – | – | –
Cc1cc(NC(=O)NC(=O)c2ccccc2Cl)c(C(C)C)cc1O | 16.4 µg | > 512 µg/mL | 512 µg/mL (≈ 1480 µM) | 256 µg/mL (≈ 738 µM) | 128 µg/mL (≈ 369 µM) | 256 µg/mL (≈ 738 µM) | 128 µg/mL | 256 µg/mL | >512 µg/mL | >512 µg/mL | 256 µg/mL | 256 µg/mL | 128 µg/mL | 128 µg/mL | > 1000 µg/mL | < 2% | – | – | – | –
Cc1cc(NC(=S)NC(=O)c2ccc(Cl)cc2)c(C(C)C)cc1O | 20.8 µg | 256 µg/mL (≈ 705 µM) | 128 µg/mL (≈ 353 µM) | > 512 µg/mL | 256 µg/mL (≈ 705 µM) | 512 µg/mL (≈ 1410 µM) | 64 µg/mL | 16 µg/mL | 32 µg/mL | 32 µg/mL | 64 µg/mL | 8 µg/mL | 32 µg/mL | 32 µg/mL | > 1000 µg/mL | < 2% | – | – | – | –
Cc1cc(NC(=S)NC(=O)c2ccccc2Cl)c(C(C)C)cc1O | 13 µg | > 512 µg/mL | > 512 µg/mL | > 512 µg/mL | > 512 µg/mL | 512 µg/mL (≈ 1410 µM) | 64 µg/mL | 64 µg/mL | >512 µg/mL | 64 µg/mL | 128 µg/mL | 32 µg/mL | 64 µg/mL | >512 µg/mL | > 1000 µg/mL | < 2% | – | – | – | –
Cc1cc(NC(=O)NC(=O)c2ccc(Cl)cc2)c(C(C)C)cc1O | 18 µg | 512 µg/mL (≈ 1480 µM) | 256 µg/mL (≈ 738 µM) | 128 µg/mL (≈ 369 µM) | 128 µg/mL (≈ 369 µM) | 256 µg/mL (≈ 738 µM) | 64 µg/mL | 32 µg/mL | >512 µg/mL | 32 µg/mL | 64 µg/mL | 32 µg/mL | 32 µg/mL | 32 µg/mL | > 1000 µg/mL | < 2% | – | – | – | –
Cc1cc(NC(=O)NC(=O)c2c(F)cccc2F)c(C(C)C)cc1O | 9.5 µg | > 512 µg/mL | > 512 µg/mL | > 512 µg/mL | > 512 µg/mL | > 512 µg/mL | >512 µg/mL | 16 µg/mL | 32 µg/mL | 16 µg/mL | >512 µg/mL | <4 µg/mL | 16 µg/mL | 16 µg/mL | > 1000 µg/mL | < 2% | – | Active | Active | Active
